Experimental data taken from PubChem BioAssay AID248 (DTP/NCI, 2004).
Several values for one entry are separate records, joined by “and”; a condition that tells them apart may be missing. Equal values may be shown once. Toxic doses and inconclusive results are not listed. Cut-off read from the data, not from the text of the source: active = T/C of 150% or more; inactive = T/C below 125%.

Test system: L1210 leukemia ip in BDF1 mice, survival T/C
Test: NCI In Vivo Anticancer Drug Screen. Data for tumor model L1210 Leukemia (intraperitoneal) in B6D2F1 (BDF1) mice
Conditions: endpoint: mean survival time, higher = longer survival
Summary of the method: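 Read-out is survival time, reported as the treated-group measurement over the vehicle-control measurement.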

[1] = dose: 100.0 mg/kg/injection, schedule: Q04DX003 (ip), vehicle: saline
[2] = dose: 25.0 mg/kg/injection, schedule: Q01DX009 (ip), vehicle: Klucel (hydroxypropylcellulose) (HPC)
[3] = dose: 50.0 mg/kg/injection, schedule: Q01DX009 (ip), vehicle: Klucel (hydroxypropylcellulose) (HPC)
[4] = dose: 100.0 mg/kg/injection, schedule: Q04DX003 (ip), vehicle: Klucel (hydroxypropylcellulose) (HPC)
[5] = dose: 200.0 mg/kg/injection, schedule: Q04DX003 (ip), vehicle: Klucel (hydroxypropylcellulose) (HPC)
[6] = dose: 400.0 mg/kg/injection, schedule: Q04DX003 (ip), vehicle: Klucel (hydroxypropylcellulose) (HPC)

Measured: T/C

c1ccc2c(c1)CCc1ccccc1CNC2
inactive: dose: 25.0 mg/kg/injection, schedule: Q04DX002 (ip), vehicle: Klucel (hydroxypropylcellulose) (HPC) 111 % of control | dose: 50.0 mg/kg/injection, schedule: Q04DX002 (ip), vehicle: Klucel (hydroxypropylcellulose) (HPC) 106 % of control

O=C(O)/C=C/C(=O)OCCBr
inactive: dose: 25.0 mg/kg/injection, schedule: Q04DX003 (ip), vehicle: saline 92 % of control | dose: 50.0 mg/kg/injection, schedule: Q01DX009 (ip), vehicle: saline with Tween-80 100 % of control | dose: 50.0 mg/kg/injection, schedule: Q04DX003 (ip), vehicle: saline 95 % of control | dose: 100.0 mg/kg/injection, schedule: Q01DX009 (ip), vehicle: saline with Tween-80 115 % of control | [1] 90 % of control | dose: 200.0 mg/kg/injection, schedule: Q01DX009 (ip), vehicle: saline with Tween-80 97 % of control

Cc1cc(=O)n2c3c(c4c(cc13)c(CBr)cc(=O)n4C)OC2
inactive: [2] 86 % of control | [3] 102 % of control | dose: 75.0 mg/kg/injection, schedule: Q01DX009 (ip), vehicle: Klucel (hydroxypropylcellulose) (HPC) 94 % of control and 87 % of control | [4] 103 % of control | [5] 93 % of control | [6] 104 % of control

COc1ccc2c(c1)CCCN2CCC#N
inactive: dose: 50.0 mg/kg/injection, schedule: Q04DX003 (ip), vehicle: other 106 % of control | dose: 100.0 mg/kg/injection, schedule: Q04DX003 (ip), vehicle: other 92 % of control | dose: 200.0 mg/kg/injection, schedule: Q04DX003 (ip), vehicle: other 108 % of control | dose: 400.0 mg/kg/injection, schedule: Q04DX003 (ip), vehicle: other 99 % of control

C[CH2][Pb]([CH2]C)([CH2]C)[N]1C(=O)c2c(Cl)c(Cl)c(Cl)c(Cl)c2C1=O
inactive: dose: 12.5 mg/kg/injection, schedule: Q04DX002 (ip), vehicle: Klucel (hydroxypropylcellulose) (HPC) 107 % of control

CC(=O)Nc1ccc(/C=N/N=C(N)N)cc1
inactive: dose: 63.0 mg/kg/injection, schedule: Q01DX Z (ip), vehicle: carboxymethylcellulose (CMC) 88 % of control | dose: 125.0 mg/kg/injection, schedule: Q01DX Z (ip), vehicle: carboxymethylcellulose (CMC) 100 % of control

CC1(C)N=C(N)N=C(N)N1c1ccc2c(Cl)c(Cl)ccc2c1
inactive: dose: 50.0 mg/kg/injection, schedule: Q04DX003 (ip), vehicle: saline with Tween-80 106 % of control | dose: 100.0 mg/kg/injection, schedule: Q04DX003 (ip), vehicle: saline with Tween-80 107 % of control and 114 % of control | dose: 200.0 mg/kg/injection, schedule: Q04DX003 (ip), vehicle: saline with Tween-80 107 % of control

S=C1NCC2CCc3c(ccc4ccccc34)N12 (configuration not stated)
inactive: dose: 100.0 mg/kg/injection, schedule: Q01DX001 (ip), vehicle: other 97 % of control | dose: 200.0 mg/kg/injection, schedule: Q01DX001 (ip), vehicle: other 90 % of control | dose: 400.0 mg/kg/injection, schedule: Q01DX001 (ip), vehicle: other 95 % of control

Cc1cc(-c2ccc(NS(=O)(=O)c3ccccc3)c(C)c2)ccc1NS(=O)(=O)c1ccccc1
inactive: dose: 25.0 mg/kg/injection, schedule: Q01DX001 (ip), vehicle: saline with Tween-80 95 % of control | dose: 50.0 mg/kg/injection, schedule: Q01DX001 (ip), vehicle: saline with Tween-80 98 % of control | dose: 100.0 mg/kg/injection, schedule: Q01DX001 (ip), vehicle: saline with Tween-80 92 % of control and 104 % of control | dose: 200.0 mg/kg/injection, schedule: Q01DX001 (ip), vehicle: saline with Tween-80 89 % of control

CCC(C)[n+]1cc([O-])on1 (configuration not stated)
inactive: dose: 12.5 mg/kg/injection, schedule: Q01DX009 (ip), vehicle: Klucel (hydroxypropylcellulose) (HPC) 98 % of control | [2] 98 % of control | [3] 95 % of control

COc1ccc2c3c(c4cc(OC)c(OC)cc4c2c1)CN1CCC[C@H]1[C@@H]3O
inactive: dose: 0.57 mg/kg/injection, schedule: Q01DX Z (ip), vehicle: water 103 % of control | dose: 0.86 mg/kg/injection, schedule: Q01DX Z (ip), vehicle: water 106 % of control | dose: 1.3 mg/kg/injection, schedule: Q01DX Z (ip), vehicle: water 111 % of control | dose: 2.0 mg/kg/injection, schedule: Q01DX Z (ip), vehicle: water 119 % of control | dose: 9.0 mg/kg/injection, schedule: Q01DX015 (ip), vehicle: acid diluted with saline 118 % of control | dose: 12.0 mg/kg/injection, schedule: Q01DX015 (ip), vehicle: acid diluted with saline 112 % of control

CCCC(CCC)NCCOC(=O)c1ccc(N)cc1
inactive: dose: 75.0 mg/kg/injection, schedule: Q01DX001 (ip), vehicle: other 101 % of control

C1=C(c2ccccc2)c2c(c3ccccc3c3ccccc23)C(c2ccccc2)=CC1
inactive: dose: 50.0 mg/kg/injection, schedule: Q01DX001 (ip), vehicle: carboxymethylcellulose (CMC) 100 % of control | dose: 100.0 mg/kg/injection, schedule: Q01DX001 (ip), vehicle: carboxymethylcellulose (CMC) 100 % of control | dose: 200.0 mg/kg/injection, schedule: Q01DX001 (ip), vehicle: carboxymethylcellulose (CMC) 94 % of control | dose: 400.0 mg/kg/injection, schedule: Q01DX001 (ip), vehicle: carboxymethylcellulose (CMC) 94 % of control

CCOC(=O)c1ccc(NC(=O)Nc2ccccc2C(F)(F)F)cc1
inactive: dose: 100.0 mg/kg/injection, schedule: Q01DX009 (ip), vehicle: Klucel (hydroxypropylcellulose) (HPC) 88 % of control | dose: 200.0 mg/kg/injection, schedule: Q01DX009 (ip), vehicle: Klucel (hydroxypropylcellulose) (HPC) 89 % of control | dose: 400.0 mg/kg/injection, schedule: Q01DX009 (ip), vehicle: Klucel (hydroxypropylcellulose) (HPC) 86 % of control

COC(=O)CCC(C)=O
inactive: dose: 100.0 mg/kg/injection, schedule: Q01DX001 (ip), vehicle: saline 102 % of control | dose: 200.0 mg/kg/injection, schedule: Q01DX001 (ip), vehicle: saline 102 % of control | dose: 400.0 mg/kg/injection, schedule: Q01DX001 (ip), vehicle: saline 100 % of control

N#CC(=C(c1ccccc1)c1ccccc1)c1ccccc1
inactive: [4] 108 % of control | [5] 108 % of control | [6] 106 % of control

O=C(O)C(C=C(Cl)Cl)N1CCCCC1 (configuration not stated)
inactive: [1] 98 % of control | dose: 200.0 mg/kg/injection, schedule: Q04DX003 (ip), vehicle: saline 93 % of control | dose: 400.0 mg/kg/injection, schedule: Q04DX003 (ip), vehicle: saline 94 % of control
